Structures are written as SMILES.

From patent US11104661B1, “Inhibiting human integrin (α-4) (β-7)” (Morphic Therapeutic, Inc., priority 2019, dated 2021) come the findings set out here.

In one assay the target is T1, α4β7 (Homo sapiens, UniProt P13612+P26010).
T1 construct: endogenous in cells; host or cells: RPMI 8866 cells
T1 sequence (P13612 34-1032): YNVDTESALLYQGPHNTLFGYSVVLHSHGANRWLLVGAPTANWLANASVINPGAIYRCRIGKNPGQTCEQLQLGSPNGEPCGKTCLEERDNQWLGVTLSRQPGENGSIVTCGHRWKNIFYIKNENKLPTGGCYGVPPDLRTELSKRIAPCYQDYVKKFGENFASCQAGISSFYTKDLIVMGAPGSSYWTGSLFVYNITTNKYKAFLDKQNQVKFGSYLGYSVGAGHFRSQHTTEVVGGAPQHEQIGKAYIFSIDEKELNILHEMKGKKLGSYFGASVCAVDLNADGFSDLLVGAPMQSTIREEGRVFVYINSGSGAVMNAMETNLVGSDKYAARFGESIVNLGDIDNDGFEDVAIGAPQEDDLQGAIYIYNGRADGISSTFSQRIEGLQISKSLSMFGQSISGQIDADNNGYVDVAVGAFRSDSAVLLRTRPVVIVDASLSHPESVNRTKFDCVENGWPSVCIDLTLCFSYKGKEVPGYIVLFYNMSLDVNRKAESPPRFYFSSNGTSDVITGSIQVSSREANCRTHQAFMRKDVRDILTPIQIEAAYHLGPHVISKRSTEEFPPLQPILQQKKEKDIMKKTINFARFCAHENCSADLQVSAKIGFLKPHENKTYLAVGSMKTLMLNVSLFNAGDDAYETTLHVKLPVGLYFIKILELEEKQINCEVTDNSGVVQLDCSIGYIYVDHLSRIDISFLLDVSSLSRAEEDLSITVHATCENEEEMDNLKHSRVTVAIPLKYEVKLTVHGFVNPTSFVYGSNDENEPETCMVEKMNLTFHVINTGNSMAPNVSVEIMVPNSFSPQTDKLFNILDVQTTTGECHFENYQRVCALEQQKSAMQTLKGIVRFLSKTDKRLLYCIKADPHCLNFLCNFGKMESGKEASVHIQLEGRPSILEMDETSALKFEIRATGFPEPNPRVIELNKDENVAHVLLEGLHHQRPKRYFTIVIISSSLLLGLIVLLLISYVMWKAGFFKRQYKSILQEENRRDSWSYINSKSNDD
T1 sequence (P26010 20-798): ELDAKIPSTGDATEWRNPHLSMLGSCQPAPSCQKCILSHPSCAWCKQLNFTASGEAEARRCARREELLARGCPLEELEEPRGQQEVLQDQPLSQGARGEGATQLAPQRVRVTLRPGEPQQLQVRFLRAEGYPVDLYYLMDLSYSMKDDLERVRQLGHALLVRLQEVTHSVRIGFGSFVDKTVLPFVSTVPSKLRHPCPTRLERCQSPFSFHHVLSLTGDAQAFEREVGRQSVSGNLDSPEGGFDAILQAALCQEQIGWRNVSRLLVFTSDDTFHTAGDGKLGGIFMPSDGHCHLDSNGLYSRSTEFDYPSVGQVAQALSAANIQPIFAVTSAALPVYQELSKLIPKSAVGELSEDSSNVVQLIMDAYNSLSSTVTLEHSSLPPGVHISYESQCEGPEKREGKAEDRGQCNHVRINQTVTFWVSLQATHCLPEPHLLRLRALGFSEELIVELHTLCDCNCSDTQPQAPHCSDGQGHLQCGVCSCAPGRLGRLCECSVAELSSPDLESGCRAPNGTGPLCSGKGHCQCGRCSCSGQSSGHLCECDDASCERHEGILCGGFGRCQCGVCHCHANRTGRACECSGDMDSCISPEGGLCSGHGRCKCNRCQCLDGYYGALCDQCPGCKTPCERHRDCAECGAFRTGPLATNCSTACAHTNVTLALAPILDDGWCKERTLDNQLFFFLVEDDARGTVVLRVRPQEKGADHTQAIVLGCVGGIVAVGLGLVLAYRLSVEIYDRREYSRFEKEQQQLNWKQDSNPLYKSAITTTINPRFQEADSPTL
Put plainly: Cell-based MAdCAM-1 ligand binding assay (LBA) on RPMI 8866 cells (Example 6). To be noted: MAdCAM-1-Fc Dylight 650, 3 mM manganese chloride, flow cytometry, Table 3, read-out: LB Assay (Example 6). An excerpt:
Compounds of Formula (I) were further evaluated using a Ligand binding assay (LBA) to examine compound potency of free ligand binding to receptors expressed on cells. The MAdCAM ligand binding assay uses flow cytometry to measure the binding of fluorescently-labeled MAdCAM-1-Fc to RPMI 8866 cells in the presence of Mn++. This assay assesses the binding of compounds to native full-length receptors on the cell surface. […] Ligand binding assays (LBA) are used to examine compound potency and selectivity of free ligand binding to receptors expressed on cells.
Three in vitro assays were used to examine the α4β7 mechanistic process used by cells: 1) ligand:receptor affinity, 2) the avidity of those interactions on a cell's surface, and 3) how those interactions fare under an imposing force. In Example 5, a Fluorescence Polarization (FP) assay is used to measure compound activity through binding competition with the fluorescein-labeled peptide. In Example 6, the potency of compounds against α4β7 is measured in the cell-based ligand binding assay (LBA), using RPMI 8866 cells incubated with the compound samples in competition with soluble MAdCAM-1 ligand. In Example 7, activity of compounds is evaluated in a cell adhesion assay that mechanistically tests what occurs in vivo when trafficking cells utilize α4β7 to adhere to MAdCAM-1 expressing HEVs of the gut during the extravasation process. In the cell adhesion assay of Example 7, a MAdCAMI1-(Fc) is coated on plastic, and α4β7 expressing cells (RPMI-8866) are allowed to adhere to the coated surface in the presence of the test compounds. Next, the force of washing with buffer is applied to cells thereby testing the strength of that adhesion. Unattached cells are removed and the remaining adherent cells are quantified.
5 ul of 33 nM MAdCAM-1-Fc fluorescently labeled with Dylight 650 in 50 mM HEPES pH 7.3, 150 mM sodium chloride, and 1% bovine serum albumin was added to the cells. The samples were incubated for 45 minutes at room temperature, fixed with 0.8% formaldehyde for 30 minutes at room temperature, and washed with 50 mM Tris pH 7.5, 150 mM NaCl, 1 mM EDTA, and 1% bovine serum albumin. Fluorescence intensity for each cell was measured via flow cytometry. Dead cells were excluded from further analysis based on staining with the 780 fixable viability dye. Median fluorescence intensity for Dylight 650 was determined for each sample and concentration-response curves were analyzed for IC50 values using 4-parameter non-linear regression analysis.
With `Cc1cc(-c2c(C)cccc2C)cc([C@H](CC(=O)O)NC(=O)C(CC(C)C)n2cc(CCN3CC[C@@H](F)C3)cc(F)c2=O)c1F` (single isomer, unassigned) [AU-P2], the IC50 was less than 10 nM.

Take `Cc1cc(-c2c(C)ccc(F)c2C)cc([C@H](CC(=O)O)NC(=O)C(CC(C)C)n2cc(CCN3CCC3)c(C(F)(F)F)cc2=O)c1F` (single isomer, unassigned) [AF-P2]: the IC50 is less than 10 nM.

As for `COc1ccc(C)c(-c2cc(C)c(F)c([C@H](CC(=O)O)NC(=O)C(CC(C)C)n3cc(CCN4CCC4)c(C(F)(F)F)cc3=O)c2)c1C` (single isomer, unassigned) [AG-P2], the IC50 was less than 10 nM.

The assay is the same for the next values; noted with them: MAdCAM-1-Fc Dylight 650, 3 mM manganese chloride, flow cytometry, Table 4 comparative compounds, read-out: LB Assay (Example 6).
On to `Cc1cccc(C)c1-c1cccc([C@H](CC(=O)O)NC(=O)[C@H](CC(C)C)n2cc(CN3CC(F)C3)ccc2=O)c1` [drawing 594], for which the IC50 was less than 10 nM.

For the compound `Cc1cccc(C)c1-c1cccc([C@H](CC(=O)O)NC(=O)[C@H](CC(C)C)n2cc(CN3CC(F)C3)ccc2=O)c1` [drawing 589], the IC50 is less than 10 nM.

As for `Cc1cccc(C)c1-c1cncc([C@H](CC(=O)O)NC(=O)[C@H](CC(C)C)N2CC[C@@H](C(F)(F)F)CC2=O)c1`, the IC50 lay within 10 to 500 nM.

Take `CC(C)C[C@@H](C(=O)N[C@@H](CC(=O)O)c1ccc(-c2ccccc2)cc1)n1cc(CCN2CC(F)C2)cc(F)c1=O`: the IC50 is 10 to 500 nM.

As to `CC(C)C[C@@H](C(=O)N[C@@H](CC(=O)O)c1ccc(-c2ccccc2)cc1)n1cc(CCN(C)C)c(C(F)(F)F)cc1=O`, the IC50 fell in the range of 10 to 500 nM.

As for `Cc1ccn([C@@H](CC(C)C)C(=O)N[C@@H](CC(=O)O)c2cncc(-c3c(C)cccc3C)c2)c(=O)c1`, the IC50 was less than 10 nM.

As for `Cc1cccc(C)c1-c1cccc([C@H](CC(=O)O)NC(=O)[C@H](CC(C)C)n2cc(CN3CC(F)C3)ccc2=O)c1` [drawing 585], the IC50 is less than 10 nM.

Take `Cc1cccc(C)c1-c1cccc([C@H](CC(=O)O)NC(=O)[C@H](CC(C)C)n2cc(CN3CC(F)C3)ccc2=O)c1` [drawing 604]: the IC50 was less than 10 nM.

In the case of `Cc1cccc(C)c1-c1cccc([C@H](CC(=O)O)NC(=O)[C@H](CC(C)C)n2cc(CN3CC(F)C3)ccc2=O)c1` [drawing 577], the IC50 was less than 10 nM.

On to `Cc1cccc(C)c1-c1cncc([C@H](CC(=O)O)NC(=O)[C@H](CC(C)C)n2ccc(C(F)(F)F)cc2=O)c1`, for which the IC50 was less than 10 nM.

As to `Cc1cccc(C)c1-c1cccc([C@H](CC(=O)O)NC(=O)[C@H](CC(C)C)n2cc(CN3CC[C@@H](F)C3)ccc2=O)c1`, the IC50 was less than 10 nM.

`Cc1cccc(C)c1-c1cccc([C@H](CC(=O)O)NC(=O)[C@H](CC(C)C)n2cc(CN3CC(F)C3)ccc2=O)c1` [drawing 599]: the IC50 was less than 10 nM.

As for `Cc1ccccc1-c1cccc([C@H](CC(=O)O)NC(=O)[C@H](CC(C)C)n2cccc(C)c2=O)c1`, the IC50 is 10 to 500 nM.

Consider `Cc1ccc([C@@H](C(=O)N[C@@H](CC(=O)O)c2cncc(-c3c(C)cccc3C)c2)N2CC(C)CCC2=O)cc1` (stereo partly shown), for which the IC50 lay within 10 to 500 nM.

For `Cc1cccc(C)c1-c1cccc([C@H](CC(=O)O)NC(=O)[C@H](CC(C)C)n2ccc(CCN(C)C)cc2=O)c1`, the IC50 is less than 10 nM.

As to `Cc1cccc(C)c1-c1cccc([C@H](CC(=O)O)NC(=O)[C@H](CC(C)C)n2cccc(CCN(C)C)c2=O)c1`, the IC50 lay within 10 to 500 nM.

Turning to `Cc1cccc(C)c1-c1cccc([C@H](CC(=O)O)NC(=O)[C@H](CC(C)C)n2cc(CN3CC(F)C3)ccc2=O)c1` [drawing 572], the IC50 was less than 10 nM.

Turning to `Cc1cccc(C)c1-c1cncc([C@H](CC(=O)O)NC(=O)[C@H](CC(C)C)n2cc(CN3CC(F)C3)ccc2=O)c1`, the IC50 was less than 10 nM.

`Cc1cccc(C)c1-c1cccc([C@H](CC(=O)O)NC(=O)[C@H](CC(C)C)n2cc(CCN(C)C)ccc2=O)c1`: the IC50 is less than 10 nM.

As to `CC(C)C[C@@H](C(=O)N[C@@H](CC(=O)O)c1ccc(-c2ccc(F)cc2)cc1)n1cc(CCN2CC(F)C2)cc(F)c1=O`, the IC50 lay in the range of 10 to 500 nM.

`CC(C)C[C@@H](C(=O)N[C@@H](CC(=O)O)c1ccc(-c2ccc(F)cc2)cc1)n1cc(CCN(C)C)c(C(F)(F)F)cc1=O`: the IC50 is 10 to 500 nM.

For the compound `COC[C@@H](C(=O)N[C@@H](CC(=O)O)c1cccc(-c2c(C)cccc2C)c1)n1ccc(C)cc1=O`, the IC50 was in the range of 10 to 500 nM.
